In patent EP0749962B1, “6-substituted-1,2,3,4-tetrahydro-9H-carbazoles and 7-substituted-10H-cyclohepta(7,6-B)indoles” (ELI LILLY AND COMPANY, priority 1995, dated 1996):
Structures can show the parent of a compound that is named as a salt. Where two headings read alike, the source gives them in different places.

Key:
[1] = target: T1, 5-HT1E (Homo sapiens, UniProt P28566); assay: [3H]5-HT radioligand binding to the cloned 5-HT1E receptor
T1 construct: expressed in transfected cells

[2] = target: T2, 5-HT1Dα (Homo sapiens, UniProt P28221); assay: [3H]5-HT radioligand binding to the cloned 5-HT1Dα receptor
T2 construct: expressed in transfected cells

[3] = system: neuronal protein extravasation; assay: Neuronal (dural) protein extravasation after electrical stimulation of the trigeminal ganglion; type: in vivo, Harlan Sprague-Dawley rats or guinea pigs; conditions: 10 minutes before trigeminal ganglion stimulation, ID50 approximated from dose-response curve, species of the table not stated (rats or guinea pigs)
Description: Harlan Sprague-Dawley rats (225-325 g) or guinea pigs from Charles River Laboratories (225-325 g) were anesthetized with sodium pentobarbital intraperitoneally (65 mg/kg or 45 mg/kg respectively) and placed in a stereotaxic frame (David Kopf Instruments) with the incisor bar set at -3.5 mm for rats or -4.0 mm for guinea pigs. Following a midline sagital scalp incision, two pairs of bilateral holes were drilled through the skull (6 mm posteriorly, 2.0 and 4.0 mm laterally in rats; 4 mm posteriorly and 3.2 and 5.2 mm laterally in guinea pigs, all coordinates referenced to bregma). Pairs of stainless steel stimulating electrodes (Rhodes Medical Systems, Inc.) were lowered through the holes in both hemispheres to a depth of 9 mm (rats) or 10.5 mm (guinea pigs) from dura.
The femoral vein was exposed and a dose of the test compound was injected intravenously (1 mL/kg). Approximately 7 minutes later, a 50 mg/kg dose of Evans Blue, a fluorescent dye, was also injected intravenously. The Evans Blue complexed with proteins in the blood and functioned as a marker for protein extravasation. […]
A fluorescence microscope (Zeiss) equipped with a grating monochromator and a spectrophotometer was used to quantify the amount of Evans Blue dye in each sample. An excitation wavelength of approximately 535 nm was utilized and the emission intensity at 600 nm was determined. […] This facilitated the computer-controlled movement of the stage with fluorescence measurements at 25 points (500 µm steps) on each dural sample. The mean and standard deviation of the measurements was determined by the computer.
The extravasation induced by the electrical stimulation of the trigeminal ganglion was an ipsilateral effect (i.e. occurs only on the side of the dura in which the trigeminal ganglion was stimulated). […] The ratio of the amount of extravasation in the dura from the stimulated side compared to the unstimulated side dura was calculated. […]

[4] = target: T3, 5-HT1F receptor (Homo sapiens, UniProt P30939); assay: [3H]5-HT radioligand binding to the cloned 5-HT1F receptor (membranes of transfected Ltk- cells)
T3 construct: expressed in transfected cells; host or cells: Ltk- cells (mouse fibroblasts)
T3 sequence (P30939 1-366): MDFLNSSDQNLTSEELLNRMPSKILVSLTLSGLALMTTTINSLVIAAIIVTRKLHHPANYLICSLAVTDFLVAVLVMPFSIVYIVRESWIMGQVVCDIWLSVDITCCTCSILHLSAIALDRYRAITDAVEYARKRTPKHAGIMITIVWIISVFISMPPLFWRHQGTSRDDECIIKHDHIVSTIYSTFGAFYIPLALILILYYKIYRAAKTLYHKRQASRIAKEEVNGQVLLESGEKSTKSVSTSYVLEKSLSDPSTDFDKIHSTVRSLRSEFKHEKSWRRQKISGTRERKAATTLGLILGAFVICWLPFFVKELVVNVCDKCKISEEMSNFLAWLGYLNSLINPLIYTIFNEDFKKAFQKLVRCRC
Description: Membrane Preparation: Membranes were prepared from transfected Ltk- cells which were grown to 100% confluency. The cells were washed twice with phosphate-buffered saline, scraped from the culture dishes into 5 mL of ice-cold phosphate-buffered saline, and centrifuged at 200 x g for 5 minutes at 4°C. The pellet was resuspended in 2.5 mL of ice-cold Tris buffer (20 mM Tris HCl, pH=7.4 at 23°C, 5 mM EDTA) and homogenized with a Wheaton tissue grinder. The lysate was subsequently centrifuged at 200 x g for 5 minutes at 4°C to pellet large fragments which were discarded. The supernatant was collected and centrifuged at 40,000 x g for 20 minutes at 4°C. The pellet resulting from this centrifugation was washed once in ice-cold Tris wash buffer and resuspended in a final buffer containing 50 mM Tris HCl and 0.5 mM EDTA, pH=7.4 at 23°C. Membrane preparations were kept on ice and utilized within two hours for the radioligand binding assays.
Saturation studies were conducted using [^3H]5-HT at 12 different concentrations ranging from 0.5 nM to 100 nM. […] The binding profile of drugs in competition experiments was accomplished using 10-12 concentrations of compound. Incubation times were 30 minutes for both saturation and displacement studies based upon initial investigations which determined equilibrium binding conditions. Nonspecific binding was defined in the presence of 10 µM 5-HT. Binding was initiated by the addition of 50 µL membrane homogenates (10-20 µg). The reaction was terminated by rapid filtration through presoaked (0.5% poylethyleneimine) filters using 48R Cell Brandel Harvester (Gaithersburg, MD). Subsequently, filters were washed for 5 seconds with ice cold buffer (50 mM Tris HCl, pH=7.4 at 4°C), dried and placed into vials containing 2.5 mL Readi-Safe (Beckman, Fullerton, CA) and radioactivity was measured using a Beckman LS 5000TA liquid scintillation counter. The efficiency of counting of [^3H]5-HT averaged between 45-50%. Binding data was analyzed by computer-assisted nonlinear regression analysis (Accufit and Accucomp, Lunden Software, Chagrin Falls, OH).

[5] = target: 5-HT1Dβ (Homo sapiens, UniProt P28222); assay: [3H]5-HT radioligand binding to the cloned 5-HT1Dβ receptor
[6] = cloned receptor, [3H]5-HT displacement, 37°C

Chain of 5-HT1Dβ (P28222 whole entry): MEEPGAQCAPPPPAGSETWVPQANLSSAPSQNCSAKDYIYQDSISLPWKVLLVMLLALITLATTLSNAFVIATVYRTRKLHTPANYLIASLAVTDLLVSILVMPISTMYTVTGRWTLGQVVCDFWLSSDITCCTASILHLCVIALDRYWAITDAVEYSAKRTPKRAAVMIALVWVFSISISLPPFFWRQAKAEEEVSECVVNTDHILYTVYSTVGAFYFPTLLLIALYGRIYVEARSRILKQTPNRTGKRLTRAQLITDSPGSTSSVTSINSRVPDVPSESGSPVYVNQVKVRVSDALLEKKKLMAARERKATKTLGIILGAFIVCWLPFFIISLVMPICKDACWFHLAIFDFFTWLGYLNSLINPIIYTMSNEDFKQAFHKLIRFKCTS
T2 sequence (P28221 whole entry): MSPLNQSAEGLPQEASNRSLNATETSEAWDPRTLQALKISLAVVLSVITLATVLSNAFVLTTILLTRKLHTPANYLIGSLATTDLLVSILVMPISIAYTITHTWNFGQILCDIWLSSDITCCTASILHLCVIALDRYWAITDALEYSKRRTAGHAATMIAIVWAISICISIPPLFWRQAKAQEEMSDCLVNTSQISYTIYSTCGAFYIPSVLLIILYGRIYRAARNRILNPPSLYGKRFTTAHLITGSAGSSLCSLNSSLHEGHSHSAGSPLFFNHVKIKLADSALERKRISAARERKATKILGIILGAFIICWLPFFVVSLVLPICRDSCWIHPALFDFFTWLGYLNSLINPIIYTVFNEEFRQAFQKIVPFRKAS
T1 sequence (P28566 whole entry): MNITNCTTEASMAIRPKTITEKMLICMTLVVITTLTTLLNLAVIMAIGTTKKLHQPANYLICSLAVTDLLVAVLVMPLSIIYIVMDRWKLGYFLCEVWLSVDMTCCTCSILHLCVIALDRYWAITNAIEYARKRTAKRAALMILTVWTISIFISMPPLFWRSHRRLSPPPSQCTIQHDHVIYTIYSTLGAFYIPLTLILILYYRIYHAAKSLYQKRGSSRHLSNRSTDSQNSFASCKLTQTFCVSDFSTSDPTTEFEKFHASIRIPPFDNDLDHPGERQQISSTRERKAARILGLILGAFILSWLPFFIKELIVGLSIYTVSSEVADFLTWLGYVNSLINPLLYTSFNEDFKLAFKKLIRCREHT

Compound	Ki [1, 6]	Ki [2, 6]	Inhibition of Protein Extravasation i.v. ID50 [3]	Ki [4, 6]	Ki [5, 6]	Ki [1]	Ki [2]	Ki [4]	Ki [5]
Cn1cc(CCN2CCC(c3c[nH]c4ccc(F)cc34)CC2)cn1 [Compound II, 5-fluoro-3-<1-<2-<1-methyl-1H-pyrazol-4-yl>ethyl>-4-piperidinyl>-1H-indole hydrochloride]	50.3 nM	21.7 nM	8.6e-10 mmol/kg	2.5 nM	53.6 nM	–	–	–	–
O=C(O)C(=O)O.Oc1ccc2[nH]cc(C3CCNCC3)c2c1 [Compound III, 5-hydroxy-3-(4-piperidinyl)-1H-indole oxalate]	–	–	8.9e-09 mmol/kg	–	–	3.9 nM	163 nM	22 nM	196 nM
CCN(CC)C1CCc2cccc(Cl)c2C1 (stereo not shown) [Compound IV, 8-chloro-2-diethylamino-1,2,3,4-tetrahydronaphthalene hydrochloride]	–	–	–	–	–	813 nM	13.5 nM	129 nM	145 nM
CN(C)C1CCc2[nH]c3ccc(O)cc3c2C1 (stereo not shown) [Compound V, 6-hydroxy-3-dimethylamino-1,2,3,4-tetrahydrocarbazole]	73.6 nM	–	8.7e-09 mmol/kg	10.3 nM	–	–	791 nM	–	1680 nM
